Laboratory results taken from patent US12508300B2, “Acylated GLP-1 derivative” (Sciwind Biosciences Co., Ltd., priority 2019, dated 2025).
Where two headings read alike, the source gives them in different places. *1 amine or outer side, *2 acyl side, *3 side chain or, on linkers, in order; H or OH if unused. Where a SMILES comes first, the peptide text is derived from it. Where no end group is shown, it is not given here. Side-chain parts run from the residue outwards. The star is where a group is joined. C18 diacid = O=C(O)CCCCCCCCCCCCCCCCC(=O)*; γGlu = O=C(O)[C@H](CCC(=O)[*:2])N[*:1]; AEEA = NCCOCCOCC(=O)O

Experiments:
Assay type in all cases: in vivo
CD-1 mice = tested on: CD-1 mice
Description: Twenty-eight healthy female CD-1 mice aged 4-6 weeks are selected and divided into 4 groups, and they are injected subcutaneously with M4, M5, M7 and M0 at a dose of 0.15 mg/kg body weight.

ICR mice = tested on: ICR mice; set-up: G-AUC: unit not given here
Description: 20% glucose is intragastrically administered every day according to the time schedule of 4 h, 1 d, 2 d, 3 d, 4 d, and 5 d, at a dose of 2 g/kg body weight, and fasting for 6 hours before administering the glucose; and blood is respectively collected from the tip of the tail at 0 h, 0.5 h, 1 h and 2 h after giving the 20% glucose, then measuring the blood glucose value in real time by using Roche blood glucose test paper.

db/db mice = test: Glucose-lowing effect of different doses in type II diabetic db/db mice (fasting, random blood glucose, OGTT G-AUC); conditions: for Average changes of the blood glucose area under the curve after administration: OGTT
Description: The administration time is set as 0 h, and the fasting blood glucose and OGTT (oral glucose tolerance assay) are determined after fasting for 7-8 h every day, then 10% glucose is intragastrically administered at 1 g/kg body weight, and then blood is collected from the tip of the tail to measure the blood glucose in real time at 0, 0.5, 1, and 2 h after glucose load. After administration, the blood glucose is measured every day before fasting as random blood glucose, until the fasting blood glucose value of each animal of the test group recovers to the value before administration. All of the basal blood glucose value, random blood glucose value, and the blood glucose area under the curve (G-AUC) value determined before administration are bases for evaluating the efficacy of the medicament, and they are set as 0.
Change of the blood glucose (Δ: delta)=Blood glucose value after administration-Basal blood glucose value before administration.
Change of the blood glucose area under the curve (Δ: delta)=blood glucose area under the curve after administration-blood glucose area under the curve before administration.

Molecule: CC[C@H](C)[C@H](NC(=O)[C@H](Cc1ccccc1)NC(=O)[C@H](CCC(=O)O)NC(=O)[C@H](CCCNC(=N)N)NC(=O)[C@H](C)NC(=O)[C@H](C)NC(=O)[C@H](CCCCNC(=O)COCCOCCNC(=O)COCCOCCNC(=O)CC[C@H](NC(=O)CCCCCCCCCCCCCCCCC(=O)O)C(=O)O)NC(=O)[C@H](CCC(=O)O)NC(=O)[C@H](CCC(=O)O)NC(=O)[C@H](CC(C)C)NC(=O)[C@H](Cc1ccc(O)cc1)NC(=O)[C@H](CO)NC(=O)[C@H](CO)NC(=O)[C@@H](NC(=O)[C@H](CC(=O)O)NC(=O)[C@H](CO)NC(=O)[C@@H](NC(=O)[C@H](Cc1ccccc1)NC(=O)[C@@H](NC(=O)CNC(=O)[C@H](CCC(=O)O)NC(=O)[C@@H](NC(=O)[C@@H](N)Cc1c[nH]cn1)C(C)C)[C@@H](C)O)[C@@H](C)O)C(C)C)C(=O)N[C@@H](C)C(=O)N[C@@H](Cc1c[nH]c2ccccc12)C(=O)N[C@@H](CC(C)C)C(=O)N[C@H](C(=O)N[C@@H](CCCNC(=N)N)C(=O)NCC(=O)N[C@@H](CCCNC(=N)N)C(=O)NCC(=O)O)C(C)C [M2, N-ε^23-[2-(2-[2-(2-[2-(2-[4-(17-carboxyheptadecanoylamino)-4(s)-carboxybutyrylamino]ethoxy)ethoxy]acetylamino)ethoxy]ethoxy)acetyl](Val^8Glu^22Lys^23Arg^26,34-GLP-1 (7-37)) peptide] (H-HVEGTFTSDVSSYLEEK([AEEA-AEEA-γGlu-C18 diacid])AAREFIAWLVRGRG-OH; N-terminus and C-terminus assumed)
- Inhibition rate (blood glucose) (CD-1 mice; mouse, in vivo, sc, 0.15 mg/kg, 6 h): 34.29%
- Inhibition rate (blood glucose) (CD-1 mice; mouse, in vivo, sc, 0.15 mg/kg, 30 h): 29.51%
- Inhibition rate (blood glucose) (CD-1 mice; mouse, in vivo, sc, 0.15 mg/kg, 54 h): 27.23%
- Inhibition rate (blood glucose) (CD-1 mice; mouse, in vivo, sc, 0.15 mg/kg, 78 h): 21.97%
- Inhibition rate (blood glucose) (CD-1 mice; mouse, in vivo, sc, 0.15 mg/kg, 102 h): 10.15%

Molecule: N-ε^26-[2-(2-[2-(2-[2-(2[4-(17-carboxyheptadecanoylamino)-4(s)-carboxybutyrylamino]ethoxy)ethoxy]acetylamino)ethoxy]ethoxy)acetyl]Val^8Glu^22Lys^26Arg^34-GLP-1(7-37) peptide (HVEGTFTSDVSSYLEEQAAK([AEEA-AEEA-γGlu-C18 diacid])EFIAWLVRGRG) [M0, Lys at position 26, disclosed in CN107033234A]
- duration of glucose-lowing effect in normal mice (CD-1 mice; 0.15 mg/kg s.c., from Table 4): about 3 days
- Inhibition rate (blood glucose) (CD-1 mice; Table 4, CD-1 mice, 0.15 mg/kg s.c., 6 h): 38.47%
- Inhibition rate (blood glucose) (CD-1 mice; Table 4, CD-1 mice, 0.15 mg/kg s.c., 30 h): 33.79%
- Inhibition rate (blood glucose) (CD-1 mice; Table 4, CD-1 mice, 0.15 mg/kg s.c., 54 h): 25.18%
- Inhibition rate (blood glucose) (CD-1 mice; Table 4, CD-1 mice, 0.15 mg/kg s.c., 78 h): 13.43%
- Inhibition rate (blood glucose) (CD-1 mice; Table 4, CD-1 mice, 0.15 mg/kg s.c., 102 h): −1.05%
- Inhibition rate (blood glucose) (CD-1 mice; Table 5 (second experiment), CD-1 mice, 0.15 mg/kg s.c., 6 h): 26.71%
- Inhibition rate (blood glucose) (CD-1 mice; Table 5 (second experiment), CD-1 mice, 0.15 mg/kg s.c., 30 h): 33.57%
- Inhibition rate (blood glucose) (CD-1 mice; Table 5 (second experiment), CD-1 mice, 0.15 mg/kg s.c., 54 h): 17.32%
- Inhibition rate (blood glucose) (CD-1 mice; Table 5 (second experiment), CD-1 mice, 0.15 mg/kg s.c., 78 h): 8.97%
- Inhibition rate (blood glucose) (CD-1 mice; Table 5 (second experiment), CD-1 mice, 0.15 mg/kg s.c., 102 h): −12.89%
- G-AUC (ICR mice; 0 h (before administration)): 18.0 ± 1.9
- time the glucose-lowing effect is maintained (ICR mice; 0.15 mg/kg s.c. single): 3 days
- G-AUC (ICR mice; 0.15 mg/kg s.c. single, 4 h): 11.1 ± 1.2
- Inhibition rate (blood glucose) (ICR mice; 0.15 mg/kg s.c. single, 4 h): 38.47%
- G-AUC (ICR mice; 0.15 mg/kg s.c. single, 1 d): 11.9 ± 0.7
- Inhibition rate (blood glucose) (ICR mice; 0.15 mg/kg s.c. single, 1 d): 33.79%
- G-AUC (ICR mice; 0.15 mg/kg s.c. single, 2 d): 13.5 ± 1.1
- Inhibition rate (blood glucose) (ICR mice; 0.15 mg/kg s.c. single, 2 d): 25.18%
- G-AUC (ICR mice; 0.15 mg/kg s.c. single, 3 d): 15.6 ± 1.3
- Inhibition rate (blood glucose) (ICR mice; 0.15 mg/kg s.c. single, 3 d): 13.43%
- G-AUC (ICR mice; 0.15 mg/kg s.c. single, 4 d): 18.2 ± 1.1
- Inhibition rate (blood glucose) (ICR mice; 0.15 mg/kg s.c. single, 4 d): 0.60%
- time after administration at which G-AUC returns to the base before administration (db/db mice; 0.015 mg/kg dosage group): 27 h
- time after administration at which fasting blood glucose returns to the basal blood glucose base (db/db mice; 0.015 mg/kg dosage group): 51 h
- time after administration at which random blood glucose returns to the base before administration (db/db mice; 0.015 mg/kg dosage group): 67 h
- Average changes of fasting blood glucose after administration (db/db mice; 0.015 mg/kg s.c., 3 h): -3.5 mM
- Average changes of random blood glucose after administration (db/db mice; 0.015 mg/kg s.c., 6 h): -15.7 mM
- Average changes of random blood glucose after administration (db/db mice; 0.015 mg/kg s.c., 19 h): -13.5 mM
- Average changes of fasting blood glucose after administration (db/db mice; 0.015 mg/kg s.c., 27 h): -2.7 mM
- Average changes of random blood glucose after administration (db/db mice; 0.015 mg/kg s.c., 43 h): -10.1 mM
- Average changes of fasting blood glucose after administration (db/db mice; 0.015 mg/kg s.c., 51 h): -2.4 mM
- Average changes of random blood glucose after administration (db/db mice; 0.015 mg/kg s.c., 67 h): -3.1 mM
- Average changes of fasting blood glucose after administration (db/db mice; 0.015 mg/kg s.c., 75 h): 2.5 mM
- Average changes of random blood glucose after administration (db/db mice; 0.015 mg/kg s.c., 91 h): -0.1 mM
- Average changes of fasting blood glucose after administration (db/db mice; 0.015 mg/kg s.c., 99 h): 3.9 mM
- Average changes of random blood glucose after administration (db/db mice; 0.015 mg/kg s.c., 115 h): 4.9 mM
- Average changes of fasting blood glucose after administration (db/db mice; 0.015 mg/kg s.c., 123 h): 3.7 mM
- Average changes of random blood glucose after administration (db/db mice; 0.015 mg/kg s.c., 139 h): 5.9 mM
- Average changes of fasting blood glucose after administration (db/db mice; 0.015 mg/kg s.c., 147 h): 9.8 mM
- time after administration at which G-AUC returns to the base before administration (db/db mice; 0.15 mg/kg dosage group): 51 h
- time after administration at which fasting blood glucose returns to the basal blood glucose base (db/db mice; 0.15 mg/kg dosage group): 75 h
- time after administration at which random blood glucose returns to the base before administration (db/db mice; 0.15 mg/kg dosage group): 67 h
- Average changes of fasting blood glucose after administration (db/db mice; 0.15 mg/kg s.c., 3 h): -4.1 mM
- Average changes of random blood glucose after administration (db/db mice; 0.15 mg/kg s.c., 6 h): -15.7 mM
- Average changes of random blood glucose after administration (db/db mice; 0.15 mg/kg s.c., 19 h): -14.8 mM
- Average changes of fasting blood glucose after administration (db/db mice; 0.15 mg/kg s.c., 27 h): -3.0 mM
- Average changes of random blood glucose after administration (db/db mice; 0.15 mg/kg s.c., 43 h): -14.1 mM
- Average changes of fasting blood glucose after administration (db/db mice; 0.15 mg/kg s.c., 51 h): -3.2 mM
- Average changes of random blood glucose after administration (db/db mice; 0.15 mg/kg s.c., 67 h): -7.1 mM
- Average changes of fasting blood glucose after administration (db/db mice; 0.15 mg/kg s.c., 75 h): -0.7 mM
- Average changes of random blood glucose after administration (db/db mice; 0.15 mg/kg s.c., 91 h): 1.7 mM
- Average changes of fasting blood glucose after administration (db/db mice; 0.15 mg/kg s.c., 99 h): 1.4 mM
- Average changes of random blood glucose after administration (db/db mice; 0.15 mg/kg s.c., 115 h): 4.5 mM
- Average changes of fasting blood glucose after administration (db/db mice; 0.15 mg/kg s.c., 123 h): 4.4 mM
- Average changes of random blood glucose after administration (db/db mice; 0.15 mg/kg s.c., 139 h): 7.8 mM
- Average changes of fasting blood glucose after administration (db/db mice; 0.15 mg/kg s.c., 147 h): 6.7 mM
- Average changes of the blood glucose area under the curve after administration (db/db mice; 0.015 mg/kg s.c., 3 h): -9.0 mmol/L/h
- Average changes of the blood glucose area under the curve after administration (db/db mice; 0.015 mg/kg s.c., 27 h): -5.2 mmol/L/h
- Average changes of the blood glucose area under the curve after administration (db/db mice; 0.015 mg/kg s.c., 51 h): 1.1 mmol/L/h
- Average changes of the blood glucose area under the curve after administration (db/db mice; 0.015 mg/kg s.c., 75 h): 8.2 mmol/L/h
- Average changes of the blood glucose area under the curve after administration (db/db mice; 0.015 mg/kg s.c., 99 h): 7.9 mmol/L/h
- Average changes of the blood glucose area under the curve after administration (db/db mice; 0.015 mg/kg s.c., 123 h): 13.0 mmol/L/h
- Average changes of the blood glucose area under the curve after administration (db/db mice; 0.015 mg/kg s.c., 147 h): 21.9 mmol/L/h
- Average changes of the blood glucose area under the curve after administration (db/db mice; 0.15 mg/kg s.c., 3 h): -10.3 mmol/L/h
- Average changes of the blood glucose area under the curve after administration (db/db mice; 0.15 mg/kg s.c., 27 h): -10.2 mmol/L/h
- Average changes of the blood glucose area under the curve after administration (db/db mice; 0.15 mg/kg s.c., 51 h): -7.1 mmol/L/h
- Average changes of the blood glucose area under the curve after administration (db/db mice; 0.15 mg/kg s.c., 75 h): 1.5 mmol/L/h
- Average changes of the blood glucose area under the curve after administration (db/db mice; 0.15 mg/kg s.c., 99 h): 3.9 mmol/L/h
- Average changes of the blood glucose area under the curve after administration (db/db mice; 0.15 mg/kg s.c., 123 h): 9.9 mmol/L/h
- Average changes of the blood glucose area under the curve after administration (db/db mice; 0.15 mg/kg s.c., 147 h): 16.0 mmol/L/h
